{"source": "paper PMC12006171", "about": "“Marsupial cathelicidins: characterization, antimicrobial activity and evolution in this unique mammalian lineage” (Frontiers in Immunology, 2025)", "key": {"[1]": {"test_system": "six bacteria (S. aureus, E. coli, P. aeruginosa; ATCC and clinical isolate)", "type": "cell-based", "details": "synthesized mature peptide", "procedure": "(§1) Antimicrobial testing of 78 cathelicidin MPs was performed in two phases as outlined in Figure 1 . In phase I, 40 peptides (27 extant and 13 ancestral) were selected for testing based on rank (outlined above) and similarity to published marsupial cathelicidins with known antimicrobial activity ([33], [41]–[43]). These peptides were tested against nine bacteria (Staphylococcus aureus ATCC 29213 and clinical isolate, Escherichia coli ATCC 25922 and clinical isolate, Pseudomonas aeruginosa ATCC 27853 and clinical isolate, Streptococcus agalactiae ATCC 12386 and clinical isolate, Streptococcus pneumoniae ATCC 49619) and three fungi (Candida krusei ATCC 6258, Candida parapsilosis ATCC 22019, and Candida albicans clinical isolate). Details regarding these strains are available in Supplementary Table 4 . The antimicrobial activity of cathelicidins was determined as the minimum inhibitory concentration (MIC), which was the lowest concentration of cathelicidin that prevented visible bacterial or fungal growth, relative to the negative control. […] Minimum bactericidal concentration (MBC) and/or minimum fungicidal concentration (MFC) was conducted to determine microbicidal versus static action. Activity against S. aureus ATCC, E. coli ATCC, and Pseudomonas aeruginosa ATCC 27853 was examined in the presence of divalent cations to determine the impact of inhibitors.\n(§2) In phase II, the remaining 38 peptides (37 extant and one ancestral) were tested against six bacteria (S. aureus ATCC and clinical isolate, E. coli ATCC and clinical isolate, and P. aeruginosa ATCC and clinical isolate). […] No further testing on phase II peptides was performed. Detailed methods for all assays are provided in subsequent sections.\n(§3) Antimicrobial activity was determined using a broth microdilution susceptibility assay in 96 well polypropylene plates according to Clinical Laboratory Standards Institute guidelines M07-A and M26A as described previously ([33], [42], [43]). The bacterial and fungal isolates from humans and animals used in this study are outlined in Supplementary Table 4 . Only yeasts were included in the panel of fungi as they have been used in the susceptibility testing of eutherian ([3], [81]–[83]) and other marsupial cathelicidins previously ([33], [42], [43]). Cathelicidin mature peptides were solubilized in DMSO and serially diluted in duplicate from 128-0.25μg/mL in a final volume of 100µL. For bacteria, cathelicidins were diluted in Mueller Hinton Broth (MHB) with or without 10% lysed horse blood, and with (MH II B) or without (MHB) calcium and magnesium cations. For fungi, cathelicidins were diluted in Roswell Park Memorial Institute medium (RPMI)-1640 MOPS. Ampicillin or tetracycline were included as a positive control for Gram-positive and -negative bacteria respectively, while amphotericin B was used for fungi. A media-only negative control and growth control (no cathelicidin) were also included on each plate. Bacteria were sub-cultured on Muller Hinton agar (MHA) or sheep blood agar (BA), and fungi on Sabouraud dextrose agar (SAB), 20–24 hours prior to the test. Colonies were suspended in saline, the concentration adjusted to a 0.5 McFarland standard, and then diluted in media to a concentration of 1.0 x 10^6 cells/mL. Then, 100μL was added to each well of the cathelicidin dilution plate, giving a final inoculum density of 5 x 10^5 CFU/mL and cathelicidin concentration of 64-0.125μg/mL. Colony counts were performed on MHA/BA/SAB to confirm inoculum density. All plates were incubated at 35°C for 20–24 hours, depending on the strain.\n(§4) Colonies were counted and compared to the colony count of the starting inoculum."}, "[2]": {"test_system": "Escherichia coli ATCC 25922", "experiment": "microbe, parasite or virus in culture", "type": "cell-based", "details": "µM equivalent of Table 3", "procedure": "as §1, §2, §3, §4"}, "[3]": {"test_system": "Escherichia coli clinical isolate - animal", "experiment": "microbe, parasite or virus in culture", "type": "cell-based", "details": "clinical isolate, µM equivalent of Table 3", "procedure": "as §1, §2, §3, §4"}, "[4]": {"test_system": "Pseudomonas aeruginosa ATCC 27853", "experiment": "microbe, parasite or virus in culture", "type": "cell-based", "details": "µM equivalent of Table 3; read-out: MIC P. aeruginosa ATCC", "procedure": "as §1, §2, §3, §4"}, "[5]": {"test_system": "Pseudomonas aeruginosa clinical isolate - animal", "experiment": "microbe, parasite or virus in culture", "type": "cell-based", "details": "clinical isolate; µM equivalent of Table 3; read-out: MIC P. aeruginosa", "procedure": "as §1, §2, §3, §4"}, "[6]": {"test_system": "Staphylococcus aureus ATCC 29213", "experiment": "microbe, parasite or virus in culture", "type": "cell-based", "details": "µM equivalent of Table 3", "procedure": "as §1, §2, §3, §4"}, "[7]": {"test_system": "Staphylococcus aureus clinical isolate - animal", "experiment": "microbe, parasite or virus in culture", "type": "cell-based", "details": "clinical isolate, µM equivalent of Table 3", "procedure": "as §1, §2, §3, §4"}, "[8]": {"test_system": "six bacteria (S. aureus, E. coli, P. aeruginosa; ATCC and clinical isolate)", "design": "method as in 4 sources, ref Peel et al 2016 ||| ref Peel et al 2021 ||| ref Wang et al 2011 ||| ref Peel et al 2017", "details": "cited from earlier work"}, "[9]": {"test_system": "three fungi (Candida krusei, Candida parapsilosis, Candida albicans)", "design": "method as in 4 sources, ref Peel et al 2016 ||| ref Peel et al 2021 ||| ref Wang et al 2011 ||| ref Peel et al 2017", "details": "cited from earlier work"}, "[10]": {"details": "broth microdilution screening, phase I or II, Y/N summary over the bacteria tested"}, "[11]": {"details": "mature peptide, Y/N summary from earlier study, ref Peel et al 2016"}, "[12]": {"details": "mature peptide, Y/N summary from earlier study, ref Peel et al 2021"}, "[13]": {"details": "mature peptide (MP), Y/N summary, ref Peel et al 2017"}}, "note": "Like-named read-outs stand apart in the source and are kept apart here.", "data": [{"sequence": "FRKLRNIFSRGRDDKE [MagiCath4]", "values": [{"measurement": "Antibacterial (MIC <64ug/mL)", "setting": "[1]; [10]", "result": "N (Antibacterial (MIC <64ug/mL))"}]}, {"sequence": "GEKVKTRFIAAIKKLIDTFLP [MaruCath8]", "values": [{"measurement": "Antibacterial (MIC <64ug/mL)", "setting": "[1]; [10]", "result": "N (Antibacterial (MIC <64ug/mL))"}]}, {"sequence": "GSTSSPTVRF [LahiCath2]", "values": [{"measurement": "Antibacterial (MIC <64ug/mL)", "setting": "[1]; [10]", "result": "N (Antibacterial (MIC <64ug/mL))"}]}, {"sequence": "KEKATKFRNSIRRRVNGLKIGAADRVPGHYLA [MagiCath5]", "values": [{"measurement": "Antibacterial (MIC <64ug/mL)", "setting": "[1]; [10]", "result": "N (Antibacterial (MIC <64ug/mL))"}]}, {"sequence": "KKFLKSVIKEAISKGIPKGIQAVNKLIKEKKEGQKHKP [MAP2, marsupial ancestral peptide, predicted by ANCESCON and GASP, synthesized]", "values": [{"measurement": "Antibacterial (MIC <64ug/mL)", "setting": "[1]; antimicrobial screening Phase II, Y/N summary over bacteria tested, broth microdilution", "result": "N (Antibacterial (MIC <64ug/mL))"}]}, {"sequence": "KKTRTKPKNSIRRRIKGFGIGTIILVPL [MagiCath6, predicted eastern grey kangaroo cathelicidin mature peptide]", "values": [{"measurement": "MBC E. coli ATCC", "setting": "[2]; value in brackets", "result": 8.8, "unit": "µM"}, {"measurement": "MIC E. coli ATCC", "setting": "[2]", "result": 8.8, "unit": "µM"}, {"measurement": "MBC E. coli", "setting": "[3]; value in brackets", "result": 17.6, "unit": "µM"}, {"measurement": "MIC E. coli", "setting": "[3]", "result": 17.6, "unit": "µM"}, {"measurement": "MIC", "setting": "[4]", "result": ">17.6", "unit": "µM"}, {"measurement": "MIC", "setting": "[5]", "result": ">17.6", "unit": "µM"}, {"measurement": "MBC S. aureus ATCC", "setting": "[6]; value in brackets", "result": 17.6, "unit": "µM"}, {"measurement": "MIC S. aureus ATCC", "setting": "[6]", "result": 17.6, "unit": "µM"}, {"measurement": "MBC S. aureus", "setting": "[7]; value in brackets", "result": 17.6, "unit": "µM"}, {"measurement": "MIC S. aureus", "setting": "[7]", "result": 17.6, "unit": "µM"}, {"measurement": "Antibacterial (MIC <64ug/mL)", "setting": "[1]; [10]", "result": "Y (Antibacterial (MIC <64ug/mL))"}]}, {"sequence": "KRGFGDSVKKTGTKLKNSIRRRVTGLTVGAAVLRPG [MaruCath1p]", "values": [{"measurement": "Antibacterial (MIC <64ug/mL)", "setting": "[1]; [10]", "result": "N (Antibacterial (MIC <64ug/mL))"}]}, {"sequence": "KRMGIFHLFWAGLRKLGNLIKNKIQQGIENFLG [SahaCath3]", "values": [{"measurement": "Antibacterial (MIC <64ug/mL)", "setting": "[8]; [11]", "result": "N (Peel et al 2016) (Antibacterial (MIC <64ug/mL))"}, {"measurement": "Antifungal (MIC <64ug/mL)", "setting": "[9]; [11]", "result": "Y (Peel et al 2016) (Antifungal (MIC <64ug/mL))"}]}, {"sequence": "KVKRGLWDTVKRKVTNLRNSIRNRATNFKLGG [MagiCath1]", "values": [{"measurement": "Antibacterial (MIC <64ug/mL)", "setting": "[1]; [10]", "result": "N (Antibacterial (MIC <64ug/mL))"}]}, {"sequence": "LFPRRRKGSNKPGKYSVLFAAKPSVGKTPHILTI [PhciCath1]", "values": [{"measurement": "Antibacterial (MIC <64ug/mL)", "setting": "[8]; [12]", "result": "N (Peel et al 2021) (Antibacterial (MIC <64ug/mL))"}, {"measurement": "Antifungal (MIC <64ug/mL)", "setting": "[9]; [12]", "result": "N (Peel et al 2021) (Antifungal (MIC <64ug/mL))"}]}, {"sequence": "LKKFFSSMIKKAVSKGISKGISKGIQEVDKAIKQKK [ModoCath2]", "values": [{"measurement": "Antibacterial (MIC <64ug/mL)", "setting": "[8]; [13]", "result": "N (Peel et al 2017) (Antibacterial (MIC <64ug/mL))"}, {"measurement": "Antifungal (MIC <64ug/mL)", "setting": "[9]; [13]", "result": "N (Peel et al 2017) (Antifungal (MIC <64ug/mL))"}]}, {"sequence": "LKKIFGSIVKKAVSKGVAEGLKAVDEARKAEKKGKK [ModoCath1]", "values": [{"measurement": "Antibacterial (MIC <64ug/mL)", "setting": "[8]; [13]", "result": "N (Peel et al 2017) (Antibacterial (MIC <64ug/mL))"}, {"measurement": "Antifungal (MIC <64ug/mL)", "setting": "[9]; [13]", "result": "N (Peel et al 2017) (Antifungal (MIC <64ug/mL))"}]}, {"sequence": "LYRRRKYPTSYYLLLGGKGNNRGYKPHIIYV [ModoCath11]", "values": [{"measurement": "Antibacterial (MIC <64ug/mL)", "setting": "[8]; [13]", "result": "N (Peel et al 2017) (Antibacterial (MIC <64ug/mL))"}, {"measurement": "Antifungal (MIC <64ug/mL)", "setting": "[9]; [13]", "result": "N (Peel et al 2017) (Antifungal (MIC <64ug/mL))"}]}, {"sequence": "NFIHQKYRILLDKYRKLQDIFSGSGDKV [PhciCath2]", "values": [{"measurement": "Antibacterial (MIC <64ug/mL)", "setting": "[8]; [12]", "result": "N (Peel et al 2021) (Antibacterial (MIC <64ug/mL))"}, {"measurement": "Antifungal (MIC <64ug/mL)", "setting": "[9]; [12]", "result": "N (Peel et al 2021) (Antifungal (MIC <64ug/mL))"}]}]}
